The structures appear in SMILES notation. Numbered stars: 1 amine (or outer) side, 2 acyl side, 3 side chain; on linkers, the order of the positions; unused ones are H or OH. Bridge positions count the residues as written; N and C are the ends. Square brackets hold non-standard residues; d marks the D form. Peptide text beside a SMILES is read from it. * marks the point of attachment. X3 = O=C(O)CN1CCN(CC(=O)O)CCN(CC(=O)NCCCOCCOCCOCCCN*)CCN(CC(=O)O)CC1; DOTA = O=C(O)CN1CCN(CC(=O)O)CCN(CC(=O)*)CCN(CC(=O)O)CC1; Trp(5-Br) = N[C@@H](Cc1c[nH]c2ccc(Br)cc12)C(=O)O; Phe(4-Cl) = N[C@@H](Cc1ccc(Cl)cc1)C(=O)O; Arg(Me) = CNC(=N)NCCC[C@H](N)C(=O)O; Lys(Me2) = CN(C)CCCC[C@H](N)C(=O)O; X1 = O=C(CC1CCN([*:1])CC1)[*:2]; Cit = NC(=O)NCCC[C@H](N)C(=O)O; Lys(Me) = CNCCCC[C@H](N)C(=O)O; Suc = O=C(CCC(=O)[*:2])[*:1]; Tle = CC(C)(C)[C@H](N)C(=O)O; 4Amb = NCc1ccc(C(=O)O)cc1; Nle = CCCC[C@H](N)C(=O)O; Aib = CC(C)(N)C(=O)O; CO = O=C([*:1])[*:2]; NHBu = CCCCN*

Ten compounds from patent US20260083865A1, “PROSTATE SPECIFIC MEMBRANE ANTIGEN (PSMA) LIGANDS AND USE THEREOF” (priority 2022, published 2026) can be followed below.

For experiment [1], the target named is T1, PSMA-expressing C4-2 cells (Homo sapiens, UniProt Q04609).
T1 construct: PSMA-expressing C4-2 cells (ATCC, Cat. No. CRL-3314) were cultured in RPMI-1640; host or cells: C4-2 cells
T1 sequence (Q04609 whole entry): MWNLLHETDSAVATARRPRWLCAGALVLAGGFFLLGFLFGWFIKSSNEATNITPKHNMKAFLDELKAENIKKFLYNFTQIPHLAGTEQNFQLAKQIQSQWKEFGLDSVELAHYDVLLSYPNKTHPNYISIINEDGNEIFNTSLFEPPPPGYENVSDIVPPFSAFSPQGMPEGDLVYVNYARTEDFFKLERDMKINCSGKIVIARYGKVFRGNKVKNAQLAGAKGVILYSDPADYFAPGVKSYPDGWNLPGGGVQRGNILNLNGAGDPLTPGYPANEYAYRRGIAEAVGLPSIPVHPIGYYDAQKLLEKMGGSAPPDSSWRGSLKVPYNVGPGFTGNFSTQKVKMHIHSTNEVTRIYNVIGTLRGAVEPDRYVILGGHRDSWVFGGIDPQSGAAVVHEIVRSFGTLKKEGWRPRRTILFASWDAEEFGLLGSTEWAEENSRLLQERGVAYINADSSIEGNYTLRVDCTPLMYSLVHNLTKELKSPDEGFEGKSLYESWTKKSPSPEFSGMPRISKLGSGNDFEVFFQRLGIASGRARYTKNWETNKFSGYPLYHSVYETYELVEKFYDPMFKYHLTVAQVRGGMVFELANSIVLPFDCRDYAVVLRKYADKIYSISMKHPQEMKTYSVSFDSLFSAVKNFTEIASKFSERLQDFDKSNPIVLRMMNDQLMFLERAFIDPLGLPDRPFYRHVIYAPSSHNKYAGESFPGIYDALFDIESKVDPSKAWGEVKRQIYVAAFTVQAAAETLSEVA
As to the kind of experiment: FACS binding assay (competition with 50 nM PSM-0183). Conditions: FACS binding, C4-2 cells, competition with 50 nM PSM-0183; category; read-out: pIC50 [C4-2] CAT (converted). The procedure:
In order to determine binding of compounds according to the present invention to PSMA-expressing cells, a FACS binding assay was established.
PSMA-expressing C4-2 cells (ATCC, Cat. No. CRL-3314) were cultured in RPMI-1640 (Pan Biotech, Cat. No. P04-18050) including 10% fetal calf serum (Biochrom) and 100 U/ml penicillin and 100 μg/mL streptomycin (Sigma, Cat. No. P0781). Cells were detached with Accutase (Biolegend, Cat. No. BLD-423201) and washed in FACS buffer (PBS (Sigma, Cat. No. D8537) including 1% fetal calf serum). Cells were diluted in FACS buffer to a final concentration of 500,000 cells per mL. 200 μL of the cell suspension were transferred to a u-shaped non-binding 96-well plate (Greiner Bio-One, Cat. No. 650901) and cells were washed in ice-cold FACS buffer.
For IC50 determination, C4-2 cells were incubated with 50 nM PSM-0183 (Ac-Thr-Aib-Phe[Cys-Lys-Arg-Aib-Asn-Cys]-Tle-Thr-Asp-Ttds-Ttds-AF488N3K-NH2) in the presence of increasing concentrations of test compounds at 4° C. for 1 hour. After two wash steps with ice-cold FACS buffer, cells were analyzed in an Attune NxT flow cytometer. Median fluorescence intensities (MFI) of the FITC/AF488-channel were calculated by Attune NxT software. MFI values were plotted against peptide concentration and four parameter logistic (4PL) curve fitting and IC50/pIC50 calculations were performed using ActivityBase software (IDBS).

The target of experiment [2] is T2, Fc-fusion protein of human PSMA (hPSMA-Fc) (Homo sapiens, UniProt Q04609).
T2 construct: purchased Acro Biosystems PSA-H5264
T2 sequence (Q04609 44-750 limits assumed): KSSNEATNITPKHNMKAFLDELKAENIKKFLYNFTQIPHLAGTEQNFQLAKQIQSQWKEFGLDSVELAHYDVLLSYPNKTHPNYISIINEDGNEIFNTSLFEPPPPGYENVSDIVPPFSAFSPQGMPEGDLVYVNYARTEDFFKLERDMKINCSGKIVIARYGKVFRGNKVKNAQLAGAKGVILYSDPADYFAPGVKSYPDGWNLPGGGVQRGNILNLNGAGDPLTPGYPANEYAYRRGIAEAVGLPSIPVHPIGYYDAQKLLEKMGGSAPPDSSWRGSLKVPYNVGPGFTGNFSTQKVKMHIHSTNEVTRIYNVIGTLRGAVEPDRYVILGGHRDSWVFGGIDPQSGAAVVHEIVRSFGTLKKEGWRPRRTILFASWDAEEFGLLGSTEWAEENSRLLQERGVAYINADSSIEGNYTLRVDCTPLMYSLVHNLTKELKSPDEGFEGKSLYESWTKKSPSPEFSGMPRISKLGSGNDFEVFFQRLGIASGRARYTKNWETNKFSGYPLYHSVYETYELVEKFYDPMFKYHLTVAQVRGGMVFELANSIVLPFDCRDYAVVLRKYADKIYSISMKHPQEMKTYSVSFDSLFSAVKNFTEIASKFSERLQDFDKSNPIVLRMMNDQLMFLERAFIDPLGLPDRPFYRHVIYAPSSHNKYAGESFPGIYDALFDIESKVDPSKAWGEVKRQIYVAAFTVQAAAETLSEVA
As to the kind of experiment: Surface plasmon resonance assay (Biacore T200, single cycle kinetic). The class given is binding. The conditions noted are these: SPR, hPSMA-Fc, single cycle kinetic, 25° C.; category; read-out: pKD CAT (converted). The procedure: Surface plasmon resonance (SPR) studies were performed using a Biacore™ T200 SPR system. Briefly, polarized light is directed towards a gold-labeled sensor surface, and minimum intensity reflected light is detected. The angle of reflected light changes as molecules bind and dissociate.
Fc-fusion protein of human PSMA (hPSMA-Fc, Acro Biosystems, Cat #PSA-H5264) was captured on a Fc-capture chip (Biacore™ CM5 sensor chip coated with ˜300 RU of an Fc-binding peptide). hPSMA-Fc was diluted in Running Buffer (HBST, 0.1% DMSO) to a final concentration of 100 nM and then flushed over the Fc-capture chip to immobilized ˜1000 RUs.
Stock solutions of test compounds were prepared by dissolving each compound in DMSO. DMSO stock solution were diluted 1:1000 in Running Buffer without DMSO. Further sequential dilutions were made with Running Buffer containing 0.1% DMSO. SPR binding analyses were performed in Single Cycle Kinetic (SCK) mode at 25° C. Flow cell coated with the Fc-binding peptide only served as reference flowcell. After each SCK run, hPSMA-Fc was removed with 10 mM glycine buffer, pH 1.5.
In between every three SCK measurements, a blank run with Running Buffer instead of test compound was included to correct for baseline drifts (double blanking method).
Table 5 describes the protocol steps for Fc-fusion target capturing and assessment of the binding kinetics.
For each test compound, SPR raw data in the form of resonance units (RU) were plotted as sensorgrams using the Biacore™ T200 control software. The signal from the blank sensorgram was subtracted from that of the test compound sensorgram (blank corrected). The blank corrected sensorgram was corrected for baseline drift by subtracting the sensorgram of a SCK run without the test compound (running buffer only). The dissociation constant (KD) was calculated from Blank-normalized SPR data using the 1:1 Langmuir binding model from the Biacore™ Insight Evaluation software. The pKD value (negative decadic logarithm of dissociation constant) was calculated using Microsoft Excel.
(SPR reads the build-up and loss of mass on a sensor chip optically.)

As for `C[C@@H]1NC(=O)[C@H](CCCNC(=N)N)NC(=O)[C@H](CCCCN)NC(=O)[C@@H](NC(=O)[C@H](Cc2ccccc2)NC(=O)C(C)(C)NC(=O)[C@@H](NC(=O)CCC(=O)NCCCOCCOCCOCCCNC(=O)CN2CCN(CC(=O)O)CCN(CC(=O)O)CCN(CC(=O)O)CC2)[C@@H](C)O)CSSC[C@@H](C(=O)N[C@H](C(=O)N[C@H](C(=O)N[C@@H](CC(=O)O)C(N)=O)[C@@H](C)O)C(C)(C)C)NC(=O)[C@H](CC(N)=O)NC1=O` [PSM-0193, DOTA-Ttds-Thr-Aib-Phe-[Cys-Lys-Arg-Ala-Asn-Cys]-Tle-Thr-Asp-NH2] ({X3-Suc}-T[Aib]FCKRANC[Tle]TD-NH2; disulfide 4-9), in experiment [1], the IC50 is below 0.2 µM. Also, the Kd in experiment [2] was below 0.0126 µM.
Taken in the same sequence, the figures for `CCCC[C@H](NC(=O)[C@@H]1CSSC[C@H](NC(=O)[C@H](Cc2ccccc2)NC(=O)[C@H](C)NC(=O)[C@@H](NC(C)=O)[C@@H](C)O)C(=O)N[C@@H](CCCCN)C(=O)N[C@@H](CCCNC(=N)N)C(=O)N[C@@H](CCC(=O)O)C(=O)N[C@@H](CC(N)=O)C(=O)N1)C(=O)N[C@@H](C(=O)N[C@H](CC(=O)O)C(N)=O)[C@H](C)O` [PSM-0197, Ac-Thr-Ala-Phe-[Cys-Lys-Arg-Glu-Asn-Cys]-Nle-Thr-Asp-NH2] (Ac-TAFCKRENC[Nle][dT][dD]-NH2; disulfide 4-9) were below 0.2 µM and 0.0126 to 0.126 µM.
Consider `C[C@@H](O)[C@H](NC(=O)[C@@H](NC(=O)[C@@H]1CSSC[C@H](NC(=O)[C@H](Cc2ccccc2)NC(=O)C(C)(C)NC(=O)[C@@H](NC(=O)CC2CCN(C(=O)CN3CCN(CC(=O)O)CCN(CC(=O)O)CCN(CC(=O)O)CC3)CC2)C(C)(C)C)C(=O)N[C@@H](CCCCN)C(=O)N[C@@H](CCCNC(=N)N)C(=O)NC(C)(C)C(=O)N[C@@H](CC(N)=O)C(=O)N1)C(C)(C)C)C(N)=O` [PSM-0198, DOTA-Cmp-Tle-Aib-Phe-[Cys-Lys-Arg-Aib-Asn-Cys]-Tle-Thr-NH2] ({DOTA}-[X1][Tle][Aib]FCKR[Aib]NC[Tle]T-NH2; disulfide 5-10), for which the IC50 in experiment [1] is 1.26 to 3.16 µM. Besides, in experiment [2], the Kd was 0.126 to 0.501 µM.
As to `CNCCCC[C@@H]1NC(=O)[C@@H](NC(=O)[C@H](Cc2ccc(Cl)cc2)NC(=O)C(C)(C)NC(=O)[C@@H](NC(=O)CC2CCN(C(=O)CN3CCN(CC(=O)O)CCN(CC(=O)O)CCN(CC(=O)O)CC3)CC2)[C@@H](C)O)CSSC[C@@H](C(=O)N[C@H](C(N)=O)C(C)(C)C)NC(=O)[C@H](CC(N)=O)NC(=O)C(C)(C)NC(=O)[C@H](CCCNC(=N)N)NC1=O` [PSM-0200, DOTA-Cmp-Thr-Aib-Pcf-[Cys-Lys(Me)-Arg-Aib-Asn-Cys]-Tle-NH2] ({DOTA}-[X1]T[Aib][Phe(4-Cl)]C[Lys(Me)]R[Aib]NC[Tle]-NH2; disulfide 5-10), the IC50 in experiment [1] is below 0.2 µM. In addition, the Kd in experiment [2] is below 0.0126 µM.
For `C[C@@H]1NC(=O)[C@H](CCCNC(=N)N)NC(=O)[C@H](CCCCN)NC(=O)[C@@H](NC(=O)[C@H](Cc2ccccc2)NC(=O)[C@H](C)NC(=O)[C@@H](NC(=O)CCC(=O)NCCCOCCOCCOCCCNC(=O)CN2CCN(CC(=O)O)CCN(CC(=O)O)CCN(CC(=O)O)CC2)[C@@H](C)O)CSSC[C@@H](C(N)=O)NC(=O)[C@H](CC(N)=O)NC1=O` [PSM-0201, DOTA-Ttds-Thr-Ala-Phe-[Cys-Lys-Arg-Ala-Asn-Cys]-NH2] ({X3-Suc}-TAFCKRANC-NH2; disulfide 4-9) the same measures were above 3.16 µM and above 0.501 µM.
Consider `C[C@@H](O)[C@H](NC(=O)[C@@H](NC(=O)[C@@H]1CSSC[C@H](NC(=O)[C@H](Cc2ccccc2)NC(=O)C(C)(C)NC(=O)[C@@H](NC(=O)c2ccc(CNC(=O)CN3CCN(CC(=O)O)CCN(CC(=O)O)CCN(CC(=O)O)CC3)cc2)[C@@H](C)O)C(=O)N[C@@H](CCCCN)C(=O)N[C@@H](CCCNC(=N)N)C(=O)NC(C)(C)C(=O)N[C@@H](CC(N)=O)C(=O)N1)C(C)(C)C)C(N)=O` [PSM-0202, DOTA-Pamb-Thr-Aib-Phe-[Cys-Lys-Arg-Aib-Asn-Cys]-Tle-Thr-NH2] ({DOTA-4Amb}-T[Aib]FCKR[Aib]NC[Tle]T-NH2; disulfide 4-9), for which, in experiment [1], the IC50 was below 0.2 µM. The Kd in experiment [2] was below 0.0126 µM.
Turning to `CNC(=N)NCCC[C@@H]1NC(=O)[C@H](CCCCN(C)C)NC(=O)[C@@H](NC(=O)[C@H](Cc2ccc(Cl)cc2)NC(=O)C(C)(C)NC(=O)[C@@H](NC(=O)CC2CCN(C(=O)CN3CCN(CC(=O)O)CCN(CC(=O)O)CCN(CC(=O)O)CC3)CC2)[C@@H](C)O)CSSC[C@@H](C(=O)N[C@H](C(=O)N[C@H](C(N)=O)[C@@H](C)O)C(C)(C)C)NC(=O)[C@H](CC(N)=O)NC(=O)C(C)(C)NC1=O` [PSM-0203, DOTA-Cmp-Thr-Aib-Pcf-[Cys-KMe2-Arg(Me)-Aib-Asn-Cys]-Tle-Thr-NH2] ({DOTA}-[X1]T[Aib][Phe(4-Cl)]C[Lys(Me2)][Arg(Me)][Aib]NC[Tle]T-NH2; disulfide 5-10), in experiment [1], the IC50 was below 0.2 µM. Besides, in experiment [2], the Kd was below 0.0126 µM.
On to `CCCCNC(=O)N[C@H](C(=O)NC(C)(C)C(=O)N[C@@H](Cc1ccc(Cl)cc1)C(=O)N[C@H]1CSSC[C@@H](C(=O)N[C@H](C(=O)N[C@H](C(=O)N2CCC(CC(=O)N[C@H](CCCCNC(=O)CN3CCN(CC(=O)O)CCN(CC(=O)O)CCN(CC(=O)O)CC3)C(N)=O)CC2)[C@@H](C)O)C(C)(C)C)NC(=O)[C@H](CC(N)=O)NC(=O)C(C)(C)NC(=O)[C@H](CCCNC(N)=O)NC(=O)[C@H](CCCCN)NC1=O)[C@@H](C)O` [PSM-0204, nBuCAyl-Thr-Aib-Pcf-[Cys-Lys-Cit-Aib-Asn-Cys]-Tle-Thr-Cmp-lys(DOTA)-NH2] ({NHBu-CO}-T[Aib][Phe(4-Cl)]CK[Cit][Aib]NC[Tle]T[X1][dK](DOTA)-NH2; disulfide 4-9), for which the IC50 in experiment [1] was below 0.2 µM. The Kd in experiment [2] is 0.0126 to 0.126 µM.
Taken in the same sequence, the figures for `CCCC[C@@H]1NC(=O)[C@@H](NC(=O)[C@H](Cc2ccc(Cl)cc2)NC(=O)C(C)(C)NC(=O)[C@@H](NC(C)=O)[C@@H](C)O)CSSC[C@@H](C(=O)N[C@H](C(=O)N[C@H](C(N)=O)[C@@H](C)O)C(C)(C)C)NC(=O)[C@H](CC(N)=O)NC(=O)C(C)(C)NC(=O)[C@H](CCCNC(=N)N)NC1=O` [PSM-0205, Ac-Thr-Aib-Pcf-[Cys-Nle-Arg-Aib-Asn-Cys]-Tle-Thr-NH2] (Ac-T[Aib][Phe(4-Cl)]C[Nle]R[Aib]NC[Tle]T-NH2; disulfide 4-9) were below 0.2 µM and below 0.0126 µM.
Taken in the same sequence, the figures for `CNCCCC[C@@H]1NC(=O)[C@@H](NC(=O)[C@H](Cc2c[nH]c3ccc(Br)cc23)NC(=O)C(C)(C)NC(=O)[C@@H](NC(=O)CC2CCN(C(=O)CN3CCN(CC(=O)O)CCN(CC(=O)O)CCN(CC(=O)O)CC3)CC2)[C@@H](C)O)CSSC[C@@H](C(=O)N[C@H](C(=O)N[C@H](C(N)=O)[C@@H](C)O)C(C)(C)C)NC(=O)[C@H](CC(N)=O)NC(=O)C(C)(C)NC(=O)[C@H](CCCNC(=N)NC)NC1=O` [PSM-0206, DOTA-Cmp-Thr-Aib-5Brw-[Cys-Lys(Me)-Arg(Me)-Aib-Asn-Cys]-Tle-Thr-NH2] ({DOTA}-[X1]T[Aib][Trp(5-Br)]C[Lys(Me)][Arg(Me)][Aib]NC[Tle]T-NH2; disulfide 5-10) were 1.26 to 3.16 µM and above 0.501 µM.
